Measurements published in patent US20090117563A1, “Identification of TRPML3 (MCOLN3) as a Salty Taste Receptor and Use in Assays for Identifying Taste (Salty) Modulators and/or Therapeutics that Modulate Sodium Transport, Absorption or Excretion and/or Aldosterone and/or Vasopressin Production or Release” (priority 2007, published 2009).

How the values were obtained:
A419P TRPML3 [1] = molecular target: T1, A419P TRPML3 (Homo sapiens, UniProt Q8TDD5, A419P); assay: IonWorks PPC patch clamp, inducible CHO-K1 cell line expressing A419P TRPML3; format: cell-based; conditions: 4 mM GdCl3 solution
T1 construct: expressed in transfected cells
T1 sequence (Q8TDD5 1-553 A419P): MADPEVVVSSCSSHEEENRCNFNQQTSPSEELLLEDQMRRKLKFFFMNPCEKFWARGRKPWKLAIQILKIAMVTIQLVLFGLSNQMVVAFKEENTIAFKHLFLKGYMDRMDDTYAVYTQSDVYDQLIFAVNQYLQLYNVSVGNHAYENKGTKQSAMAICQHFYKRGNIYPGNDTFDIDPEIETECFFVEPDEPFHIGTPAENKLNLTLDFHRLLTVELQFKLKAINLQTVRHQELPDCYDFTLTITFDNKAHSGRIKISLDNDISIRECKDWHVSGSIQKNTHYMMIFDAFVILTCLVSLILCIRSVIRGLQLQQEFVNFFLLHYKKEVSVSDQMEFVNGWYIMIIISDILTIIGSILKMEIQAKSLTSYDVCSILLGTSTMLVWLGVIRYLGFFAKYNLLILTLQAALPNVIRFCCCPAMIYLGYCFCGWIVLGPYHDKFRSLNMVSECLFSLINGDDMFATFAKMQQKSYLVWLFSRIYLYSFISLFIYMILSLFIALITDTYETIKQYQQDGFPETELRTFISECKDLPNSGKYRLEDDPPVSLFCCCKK
Source text: Different versions of human TRPML3 can be assayed, included but not limited to a wild-type version and a gain of function mutant version encoding an A419P substitution. TRPML3 can be expressed in CHO-K1 cells by one of three methods: (i) transient transfection (ii) BacMam transduction or (iii) a stable transfection and TRPML3 function measured using the perforated patch clamp technique on an IonWorks Quattro instrument (MDS Analytical Technologies). Cells are dissociated with Detachin cell detachment solution (Genlantis), centrifuged, and resuspended in external recording buffer (150 mM NaCl, 2 mM KCl, 1.5 mM CaCl2, 1 mM MgCl2, 10 mM HEPES pH 7.4 with NaOH). […]
The following description illustrates the IonWorks screening assay to identify compounds that modulate (activate or block) TRPML3 function. […] In each scan currents are measured as the voltage is modified (see example voltage command trace in FIG. 29).
Compounds will be applied at concentrations between ˜1 uM and 100 uM. […] Compounds that enhance TRPML3 by affecting the voltage dependent rectification will be preferentially detected at −40 mV where the rectification is strong while compounds that block TRPML3 will be preferentially detected at −120 mV where the TRPML3 currents are larger. To quantitate the effect of a compound on TRPML3 function, we use the following formula: [(A−Ao)/(B−Bo)]×100. […]

A419P TRPML3 [2] = molecular target: T1, A419P TRPML3; assay: FLIPR membrane potential dye assay, HEK293 cells expressing A419P-TRPML3; format: cell-based; conditions: for effect on basal fluorescence, dose dependence: increasing concentrations of gadolinium, compared to RFP-transfected cells
Source text: Specific cell-based assays for the discovery of TRPML3 modulators were developed which that could ultimately be used in food and beverages to modulate saltiness perception. A419P-TRPML3 function was monitored in HEK293 cells transiently transfected or transduced with the gene encoding A419P-TRPML3 and using specific membrane potential dyes (FMPs; Molecular Devices).
(§1) HEK293 cells were transiently transfected with RFP, αENaC or A419P-TRPML3 and were loaded with a membrane potential dye (R-8034; Molecular Devices) in HBSS at room temperature for 30 minutes. Membrane potential (fluorescent signal) was monitored on a FLIPR system (Molecular Devices).
(§2) HEK293 cells were transiently transfected with RFP or A419P-TRPML3 and were loaded with a membrane potential dye (R-8034; Molecular Devices) in HBSS at room temperature for 30 minutes. Membrane potential (fluorescent signal) was monitored on a FLIPR system (Molecular Devices).
as §2, with “HBSS, NMDG and increasing concentrations of gadolinium were added to the cells and resulting changes in membrane” for “Membrane”
as §1, with “RFP, A419P-TRPML3 or” for “RFP,”, “plasmid” for “or A419P-TRPML3”, “HBSS (control), 3 mM gadolinium and 30 uM Amiloride were added to the cells and resulting changes in membrane” for “Membrane”

SMILES: [Cl][Gd]([Cl])[Cl] [gadolinium, gadolinium chloride]
- effect on TRPML3 current (IonWorks scan) (A419P TRPML3 [1]): blocks TRPML3 current
- effect on basal fluorescence counts, specificity (A419P TRPML3 [2]; 3 mM gadolinium, A419P-TRPML3 versus αENaC transfected cells): preferentially reduces basal fluorescence counts
- effect on basal fluorescence, dose dependence (A419P TRPML3 [2]): significantly reduces the basal fluorescence
- effect on basal fluorescence, dose dependence (A419P TRPML3 [2]; listed as Gadolinium): reversed the increase in fluorescence in a dose-dependent and specific fashion
- effect on basal fluorescence (membrane potential) (A419P TRPML3 [2]; transiently transfected HEK293, single addition of gadolinium): significantly reduces the basal fluorescence
